# How the values were obtained:
# [1] = system: fimA, mfa1, kgp, rgpA/B, rgpA; assay: Virulence gene expression in P. gingivalis with ArcA peptides, stated for the gene set, qRT-PCR; format: cell-based, Porphyromonas gingivalis 33277; details: peptide 16 µM (Table 1); at a lower efficiency than peptide4
# Method: (§1) P. gingivalis were homogenized in Trizol Reagent (Invitrogen, Carlsbad, CA) and RNA was purified using an RNeasy mini spin column (Qiagen, Valencia, CA). RNA samples were digested on-column with RNase-free DNase, and total RNA was tested using an Agilent 2100 Bioanalyzer to ensure the quality of the samples. Amplification reactions consisted of a reverse transcription using a Bio-Rad iScript Reverse Transcription Supermix on a TC-3000 thermal cycler (Techne, Staffordshire, ST15 OSA, UK) and a real-time qRT-PCR analysis using a QuantiTect SYBR Green RT-PCR Kit (Qiagen) on an iCycler MyiQ^TM Real-Time PCR detection system (Bio-Rad Laboratories, Inc, Hercules, CA) according to the manufacturer’s instructions. P. gingivalis 16 S rRNA gene was used as a normalizing gene. […] The expression levels of the investigated genes for the test sample were determined relative to the untreated calibrator sample by using the comparative cycle threshold (ΔC T) method. ΔC T was calculated by subtracting the average C T value of the test sample from the average C T value of the calibrator sample, and the value used to calculate the ratio between the two by assuming 100% amplification efficiency.
# (§2) Peptides were resuspended in nuclease/proteinase-free PBS, aliquoted, and stored at −20 °C. Inhibitory activity of peptides were determined as described[16] with slight modification. Peptides were mixed with 5 × 10^5 cells of P. gingivalis, spotted onto a TSB blood agar plate, and cultured for 60 h anaerobically. The expression levels of fimbrial and gingipain mRNA or proteins were measured using qRT-PCR or western blot analyses.
# fimA = fimA expression in P. gingivalis with ArcA peptides, real-time qRT-PCR; format: cell-based, Porphyromonas gingivalis 33277; details: peptide 16 µM; P. gingivalis 33277 grown TSB; real-time PCR mRNA level relative to absence of peptide = 1 unit; means and SD of three independent experiments
# Method: (§3) The IC50 for each gene was established using a Microsoft Excel program with add-in for curve fitting.
# as §1, §2
# rgpA = details: peptide 16 µM; P. gingivalis 33277 grown TSB; real-time PCR mRNA level relative to absence of peptide = 1 unit; means and SD of three independent experiments
# Method: as §3, §1, §2
# mfa1 = details: peptide 16 µM; P. gingivalis 33277 grown TSB; real-time PCR mRNA level relative to absence of peptide = 1 unit; means and SD of three independent experiments
# Method: as §3, §1, §2
# kgp = details: peptide 16 µM; P. gingivalis 33277 grown TSB; real-time PCR mRNA level relative to absence of peptide = 1 unit; means and SD of three independent experiments
# Method: as §3, §1, §2
# rgpA/B = rgpA/B expression (catalytic regions of rgpA/B) in P. gingivalis with ArcA peptides, real-time qRT-PCR; format: cell-based, Porphyromonas gingivalis 33277; details: peptide 16 µM; P. gingivalis 33277 grown TSB; real-time PCR mRNA level relative to absence of peptide = 1 unit; means and SD of three independent experiments
# Method: as §3, §1, §2
# pgn0128 = pgn0128 (immunoreactive 53 kDa antigen) expression in P. gingivalis with ArcA peptides, real-time qRT-PCR; format: cell-based, Porphyromonas gingivalis 33277; details: peptide 16 µM; P. gingivalis 33277 grown TSB; real-time PCR mRNA level relative to absence of peptide = 1 unit; means and SD of three independent experiments
# Method: as §1, §2
substance,measurement,setting,value
E389LVRGRGGPRCMSMPF [Peptide P5],Inhibitory activity on virulence gene expression (in words),[1],some inhibitory activity
same,Relative expression level fimA,fimA,0.97 ± 0.05
same,Relative expression level rgpA,rgpA,0.73 ± 0.06
same,Relative expression level mfa1,mfa1,0.83 ± 0.04
same,Relative expression level kgp,kgp,0.96 ± 0.12
same,Relative expression level rgpA/B,rgpA/B,0.72 ± 0.05
same,Relative expression level pgn0128,pgn0128,0.91 ± 0.06
I97RGRETKK [Peptide P1],Inhibitory activity on virulence gene expression (in words),[1],some inhibitory activity
same,Relative expression level fimA,fimA,0.88 ± 0.08
same,Relative expression level rgpA,rgpA,0.86 ± 0.07
same,Relative expression level mfa1,mfa1,0.85 ± 0.05
same,Relative expression level kgp,kgp,1.06 ± 0.12
same,Relative expression level rgpA/B,rgpA/B,0.89 ± 0.05
same,Relative expression level pgn0128,pgn0128,0.96 ± 0.06
V208YNREEDTRIEGGDEL [Peptide P3],Inhibitory activity on virulence gene expression (in words),[1],some inhibitory activity
same,Relative expression level fimA,fimA,0.87 ± 0.10
same,Relative expression level rgpA,rgpA,0.84 ± 0.06
same,Relative expression level mfa1,mfa1,0.82 ± 0.07
same,Relative expression level kgp,kgp,0.99 ± 0.12
same,Relative expression level rgpA/B,rgpA/B,0.98 ± 0.06
same,Relative expression level pgn0128,pgn0128,0.91 ± 0.07
